Data reported in patent US7285664B2, “Heterocyclic or benzenic derivatives of lipoic acid, their preparation and their use as medicaments” (S.C.R.A.S. Societe de Conseils de Recherches et …, priority 2000, dated 2007).
Structures can show the parent of a compound that is named as a salt.

tested on: HT-22 cells; test: Effects on the oxidative stress induced by glutamate on cells in culture (HT-22), MTT viability; type: cell-based; settings: Mus musculus; protection of HT-22 cells from glutamate (5 mM); viability after 24 hours by MTT
Method: Study of the Effects on the Oxidative Stress Induced by Glutamate on Cells in Culture (HT-22):
The inhibitory activity of the products of the invention is determined by measuring their ability to protect the cells of a mouse hippocampal cell line (HT-22) from oxidative stress caused by glutamate. The biosynthesis of glutathione, an essential element in cell detoxification of free radicals, requires the active transport of cystine to inside the cell. The glutamate by opposing the penetration of cystine causes a reduction in the level of gluthatione which leads to the death of the cell by oxidative stress (Demerle-Pallardy, C. et al., J. Neurochem. (2000), 74, 2079-2086; Davis, J. B. and Maher, P., Brain Res., (1994) 652: 169-173; Murphy, T. H. et al., Neuron, (1989) 2: 1547-1558). The cells are cultured at 37° C. in a DMEM medium with 10% of fetal calf serum added to it. The tests are carried out in 96-well plates containing 5000 cells per well. The glutamate (5 mM) is added to the medium containing or not containing the products to be tested. The cell viability is tested after 24 hours by the MTT process (Hansen, M. B. et al., J. Immunol. Processes (1989) 119: 203-210). The ability of the compounds to protect the cells from the toxic action of the glutamate is estimated in EC50, calculated relative to the viability of cells which have not been subjected to the action of the glutamate considered as 100% viability.

| SMILES | EC50 |
| --- | --- |
| NC(=Nc1ccc(N2CCN(C(=O)CCCCC3CCSS3)CC2)cc1)c1cccs1 (stereo not drawn) [Example 1, N′-(4-{4-[5-(1,2-dithiolan-3-yl)pentanoyl]-1-piperazinyl)phenyl)-2-thiophenecarboximidamide hydrochloride] | ≤ 4 µM |
| NC(=Nc1ccc(N2CCN(C(=O)CC3CCSS3)CC2)cc1)c1cccs1 (stereo not drawn) [Example 2, N′-(4-{4-[2-(1,2-dithiolan-3-yl)acetyl]-1-piperazinyl}phenyl)-2-thiophenecarboximidamide] | ≤ 4 µM |
| NC(=Nc1cccc(CN2CCN(C(=O)CC3CCSS3)CC2)c1)c1cccs1 (stereo not drawn) [Example 4, N′-[3-({4-[2-(1,2-dithiolan-3-yl)acetyl]-1-piperazinyl}methyl)phenyl]-2-thiophenecarboximidamide] | ≤ 4 µM |
| NC(=Nc1ccc(N2CCN(C(=O)NCCCCC3CCSS3)CC2)cc1)c1cccs1 (stereo not drawn) [Example 5, 4-(4-{[amino(2-thienyl)methylidene]amino}phenyl)-N-[4-(1,2-dithiolan-3-yl)butyl]-1-piperazinecarboxamide] | ≤ 4 µM |
| Cc1cc(N2CCN(C(=O)NCCCCC3CCSS3)CC2)ccc1N=C(N)c1cccs1 (stereo not drawn) [Example 7, 4-(4-{[amino(2-thienyl)methylidene]amino}-3-methylphenyl)-N-[4-(1,2-dithiolan-3-yl)butyl]-1-piperazinecarboxamide] | ≤ 4 µM |
| COc1cc(N=C(N)c2cccs2)ccc1N1CCN(C(=O)NCCCCC2CCSS2)CC1 (stereo not drawn) [Example 8, 4-(4-{[amino(2-thienyl)methylidene]amino}-2-methoxyphenyl)-N-[4-(1,2-dithiolan-3-yl)butyl]-1-piperazinecarboxamide] | ≤ 4 µM |
| COc1cc(N2CCN(C(=O)NCCCCC3CCSS3)CC2)ccc1N=C(N)c1cccs1 (stereo not drawn) [Example 9, 4-(4-{[amino(2-thienyl)methylidene]amino}-3-methoxyphenyl)-N-[4-(1,2-dithiolan-3-yl)butyl]-1-piperazinecarboxamide] | ≤ 4 µM |
| N#Cc1cc(N=C(N)c2cccs2)ccc1N1CCN(C(=O)NCCCCC2CCSS2)CC1 (stereo not drawn) [Example 10, 4-(4-{[amino(2-thienyl)methylidene]amino}-2-cyanophenyl)-N-[4-(1,2-dithiolan-3-yl)butyl]-1-piperazinecarboxamide] | ≤ 4 µM |
| NC(=Nc1cccc(CN2CCN(C(=O)NCCCCC3CCSS3)CC2)c1)c1cccs1 (stereo not drawn) [Example 11, 4-(3-{[amino(2-thienyl)methylidene]amino}benzyl)-N-[4-(1,2-dithiolan-3-yl)butyl]-1-piperazinecarboxamide] | ≤ 4 µM |
